Assay results published in patent US9695155B2, “Herbicidal substituted pyrimidinyloxy benzene compounds” (E. I. DU PONT DE NEMOURS AND COMPANY, priority 2013, dated 2017).

Experiments:
wheat [1] = test: Test A preemergence; type: in vivo, Triticum aestivum
Method in brief: (§1)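 Pre- and postemergence greenhouse screen. Soil: loam + sand. Spray carrier: solvent mixture, non-phytotoxic, with surfactant. Post timing at 1–2 leaves, height 2–10 cm. Readout: visual injury on a 0–100 scale roughly 10 days after application, untreated plants as reference.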

large (Lg) crabgrass [2] = test: Test A postemergence; type: in vivo, Digitaria sanguinalis; details: Digitaria sanguinalis, post-emergence, 240 h
Method in brief: as §1

velvetleaf [3] = test: Test A preemergence; type: in vivo, Abutilon theophrasti
Method in brief: as §1

morningglory = test: Test C postemergence; type: in vivo, Ipomoea coccinea; details: Ipomoea, post-emergence
Method in brief: (§2)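 Plants were kept under greenhouse conditions for 13–15 days following spray. Pre-emergent application went to soil (loam–sand), post-emergent to foliage at 1–4 leaves. Evaluation: visual, percent control against untreated checks.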

wheat [4] = test: Test A postemergence; type: in vivo, Triticum aestivum; details: Triticum aestivum, post-emergence, 240 h, 0 to 100 scale where 0 is no effect and 100 is complete control, read-out: Plant response rating, Wheat
Method in brief: as §1

large (Lg) crabgrass [5] = test: Test A preemergence; type: in vivo, Digitaria sanguinalis; details: Digitaria sanguinalis, pre-emergence, 240 h
Method in brief: as §1

soybean = test: Test C postemergence; type: in vivo, Glycine max; details: Glycine max, post-emergence
Method in brief: as §2

velvetleaf [6] = test: Test C postemergence; type: in vivo, Abutilon theophrasti; details: Abutilon theophrasti, post-emergence
Method in brief: as §2

pigweed = test: Test C postemergence; type: in vivo, Amaranthus retroflexus; details: Amaranthus retroflexus, post-emergence
Method in brief: as §2

lambsquarters = test: Test C postemergence; type: in vivo, Chenopodium album; details: Chenopodium album, post-emergence
Method in brief: as §2

oilseed rape = test: Test C postemergence; type: in vivo, Brassica napus; details: Brassica napus, post-emergence
Method in brief: as §2

giant foxtail = test: Test A postemergence; type: in vivo, Setaria faberii; details: Setaria faberi, post-emergence, 240 h, 0 to 100 scale where 0 is no effect and 100 is complete control, read-out: Plant response rating, Foxtail, Giant
Method in brief: as §1

kochia = test: Test C postemergence; type: in vivo, Kochia scoparia; details: Bassia scoparia, post-emergence
Method in brief: as §2

Heteranthera limosa = test: Test B flooded paddy test; type: in vivo; details: Heteranthera limosa, Flood, 250 g ai/ha; 0 to 100 scale where 0 is no effect and 100 is complete control; read-out: Plant response rating, Ducksalad
Method in brief: (§3)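 Evaluation is visual, against untreated controls, 13 to 15 days after treatment. Before treatment, plants reached the 2-leaf stage; pots were then flooded 3 cm deep, compound was added to the water, and that level was maintained. Ratings run 0 to 100, with 100 meaning complete control.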

velvetleaf [7] = test: Test A postemergence; type: in vivo, Abutilon theophrasti; details: Abutilon theophrasti, post-emergence, 240 h, 0 to 100 scale where 0 is no effect and 100 is complete control, read-out: Plant response rating, Velvetleaf
Method in brief: as §1

rice = test: Test B flooded paddy test; type: in vivo, Oryza sativa; details: Oryza sativa; Flood, 250 g ai/ha; 0 to 100 scale where 0 is no effect and 100 is complete control; read-out: Plant response rating, Rice
Method in brief: as §3

[8] = 125 g ai/ha, 0 to 100 scale where 0 is no effect and 100 is complete control
[9] = 125 g ai/ha, 0 to 100 scale where 0 is no effect and 100 is complete control, read-out: Plant response rating, Crabgrass, Large

Q: Which results are given for `N#Cc1cccc(Oc2ncc(F)cn2)c1-n1cc(C(F)(F)F)cn1` [Compound 79, 3-[(5-fluoro-2-pyrimidinyl)oxy]-2-[4-(trifluoromethyl)-1H-pyrazol-1-yl]benzonitrile]?
A: Plant response rating, Wheat (wheat [1]; [8]): 70; plant injury at 500 g/ha (wheat [1]; Triticum aestivum, pre-emergence, 240 h, 500 g ai/ha, 0 to 100 scale, 0 no effect, 100 complete control, approx. 10 days, read-out: Wheat plant response rating): 100%; pest or weed control at 125 g/ha (large (Lg) crabgrass [2]; [9]): 100%; pest or weed control at 500 g/ha (large (Lg) crabgrass [2]; 500 g ai/ha, 0 to 100 scale, 0 no effect, 100 complete control, read-out: Plant response rating Crabgrass, Large): 100%; Plant response rating, Velvetleaf (velvetleaf [3]; [8]): 100; pest or weed control at 500 g/ha (velvetleaf [3]; Abutilon theophrasti, pre-emergence, 240 h, 500 g ai/ha, 0 to 100 scale, 0 no effect, 100 complete control, approx. 10 days, read-out: Velvetleaf plant response rating): 100%; pest or weed control at 125 g/ha (morningglory; 125 g ai/ha, postemergence, read-out: Plant response rating (0 to 100), Morningglory): 95%; pest or weed control at 250 g/ha (morningglory; 250 g ai/ha, postemergence, read-out: Plant response rating (0 to 100), Morningglory): 98%; pest or weed control at 31 g/ha (morningglory; Postemergence, 31 g ai/ha, scale 0 to 100 (0 no effect, 100 complete control), 13 to 15 days, read-out: Plant response rating, Morningglory): 70%; pest or weed control at 62 g/ha (morningglory; Postemergence, 62 g ai/ha, scale 0 to 100 (0 no effect, 100 complete control), read-out: Plant response rating, Morningglory): 95%; plant injury at 125 g/ha (wheat [4]; 125 g ai/ha): 80%; plant injury at 500 g/ha (wheat [4]; 500 g ai/ha): 90%; pest or weed control at 125 g/ha (large (Lg) crabgrass [5]; [9]): 100%; pest or weed control at 500 g/ha (large (Lg) crabgrass [5]; 500 g ai/ha, 0 to 100 scale, 0 no effect, 100 complete control, approx. 10 days, read-out: Crabgrass, Large plant response rating): 100%; Soybean plant response rating (crop injury, 0-100 scale) at 125 g/ha (soybean; 125 g ai/ha, postemergence, read-out: Plant response rating (0 to 100), Soybean): 90%; Soybean plant response rating (crop injury, 0-100 scale) at 250 g/ha (soybean; 250 g ai/ha, postemergence): 95%; Soybean plant response rating (crop injury, 0-100 scale) at 31 g/ha (soybean; Postemergence, 31 g ai/ha, scale 0 to 100 (0 no effect, 100 complete control), 13 to 15 days): 65%; Soybean plant response rating (crop injury, 0-100 scale) at 62 g/ha (soybean; Postemergence, 62 g ai/ha, scale 0 to 100 (0 no effect, 100 complete control)): 85%; pest or weed control at 125 g/ha (velvetleaf [6]; 125 g ai/ha, postemergence, read-out: Plant response rating (0 to 100), Velvetleaf): 70%; pest or weed control at 250 g/ha (velvetleaf [6]; 250 g ai/ha, postemergence, read-out: Plant response rating (0 to 100), Velvetleaf): 90%; pest or weed control at 31 g/ha (velvetleaf [6]; Postemergence, 31 g ai/ha, scale 0 to 100 (0 no effect, 100 complete control), 13 to 15 days, read-out: Plant response rating, Velvetleaf): 55%; pest or weed control at 62 g/ha (velvetleaf [6]; Postemergence, 62 g ai/ha, scale 0 to 100 (0 no effect, 100 complete control), read-out: Plant response rating, Velvetleaf): 70%; pest or weed control at 125 g/ha (pigweed; 125 g ai/ha, postemergence, read-out: Plant response rating (0 to 100), Pigweed): 95%; pest or weed control at 250 g/ha (pigweed; 250 g ai/ha, postemergence, read-out: Plant response rating (0 to 100), Pigweed): 98%; pest or weed control at 31 g/ha (pigweed; Postemergence, 31 g ai/ha, scale 0 to 100 (0 no effect, 100 complete control), 13 to 15 days, read-out: Plant response rating, Pigweed): 75%; pest or weed control at 62 g/ha (pigweed; Postemergence, 62 g ai/ha, scale 0 to 100 (0 no effect, 100 complete control), read-out: Plant response rating, Pigweed): 95%; pest or weed control at 125 g/ha (lambsquarters; 125 g ai/ha, postemergence, read-out: Plant response rating (0 to 100), Lambsquarters): 95%; pest or weed control at 250 g/ha (lambsquarters; 250 g ai/ha, postemergence, read-out: Plant response rating (0 to 100), Lambsquarters): 98%; pest or weed control at 31 g/ha (lambsquarters; Postemergence, 31 g ai/ha, scale 0 to 100 (0 no effect, 100 complete control), 13 to 15 days, read-out: Plant response rating, Lambsquarters): 90%; pest or weed control at 62 g/ha (lambsquarters; Postemergence, 62 g ai/ha, scale 0 to 100 (0 no effect, 100 complete control), read-out: Plant response rating, Lambsquarters): 95%; plant injury at 125 g/ha (oilseed rape; 125 g ai/ha, postemergence, read-out: Plant response rating (0 to 100), Oilseed Rape): 50%; plant injury at 250 g/ha (oilseed rape; 250 g ai/ha, postemergence, read-out: Plant response rating (0 to 100), Oilseed Rape): 90%; plant injury at 31 g/ha (oilseed rape; Postemergence, 31 g ai/ha, scale 0 to 100 (0 no effect, 100 complete control), 13 to 15 days, read-out: Plant response rating, Oilseed Rape): 30%; plant injury at 62 g/ha (oilseed rape; Postemergence, 62 g ai/ha, scale 0 to 100 (0 no effect, 100 complete control), read-out: Plant response rating, Oilseed Rape): 50%; pest or weed control at 125 g/ha (giant foxtail; 125 g ai/ha): 100%; pest or weed control at 500 g/ha (giant foxtail; 500 g ai/ha): 100%; pest or weed control at 125 g/ha (kochia; 125 g ai/ha, postemergence, read-out: Plant response rating (0 to 100), Kochia): 95%; pest or weed control at 250 g/ha (kochia; 250 g ai/ha, postemergence, read-out: Plant response rating (0 to 100), Kochia): 95%; pest or weed control at 31 g/ha (kochia; Postemergence, 31 g ai/ha, scale 0 to 100 (0 no effect, 100 complete control), 13 to 15 days, read-out: Plant response rating, Kochia): 90%; pest or weed control at 62 g/ha (kochia; Postemergence, 62 g ai/ha, scale 0 to 100 (0 no effect, 100 complete control), read-out: Plant response rating, Kochia): 90%; pest or weed control at 250 g/ha (Heteranthera limosa): 95%; pest or weed control at 125 g/ha (velvetleaf [7]; 125 g ai/ha): 100%; pest or weed control at 500 g/ha (velvetleaf [7]; 500 g ai/ha): 100%; plant injury at 250 g/ha (rice): 45%
